Measurements published in patent US9169254B2, “Spiroimidazolone derivative” (Chugai Seiyaku Kabushiki Kaisha, priority 2009, dated 2015).

Each molecule was assayed against T1, human PTH1 receptor (Homo sapiens, UniProt Q03431) (assay: In vitro cAMP signal activity in HKRK-B7 cells (LLC-PK1 cells overexpressing the human PTH1 receptor)). Settings: HKRK-B7 cells; compound at 1×10^−3 M; […]; 0.1 µM.
T1 sequence (Q03431 27-593): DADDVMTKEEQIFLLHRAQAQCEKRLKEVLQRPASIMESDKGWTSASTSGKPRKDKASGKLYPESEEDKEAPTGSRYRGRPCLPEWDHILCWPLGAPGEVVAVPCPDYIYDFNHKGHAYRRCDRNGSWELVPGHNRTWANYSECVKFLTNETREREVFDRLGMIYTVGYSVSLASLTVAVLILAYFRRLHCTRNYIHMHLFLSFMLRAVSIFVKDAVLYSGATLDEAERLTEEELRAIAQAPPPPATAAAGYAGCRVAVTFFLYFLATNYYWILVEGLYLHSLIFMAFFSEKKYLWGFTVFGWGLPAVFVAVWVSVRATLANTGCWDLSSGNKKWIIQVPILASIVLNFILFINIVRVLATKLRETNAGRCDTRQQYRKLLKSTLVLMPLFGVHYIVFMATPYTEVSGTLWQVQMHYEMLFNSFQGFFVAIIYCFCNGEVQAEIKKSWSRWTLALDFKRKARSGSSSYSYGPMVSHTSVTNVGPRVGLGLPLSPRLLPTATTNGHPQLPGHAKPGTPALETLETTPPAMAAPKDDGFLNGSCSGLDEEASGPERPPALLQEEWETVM
Assay type: cell-based

Row | SMILES | cAMP production activity (%)
1 | CC(=O)N(c1ccc(/C=C/S(=O)(=O)N2CCC3(CC2)N=C(c2cccc(OC(F)(F)F)c2)NC3=O)c(C)c1)C1CCN(C(=O)OC(C)(C)C)CC1 [Compound 604, 4-[acetyl-(3-methyl-4-{(E)-2-[4-oxo-2-(3-trifluoromethoxy-phenyl)-1,3,8-triaza-spiro[4.5]dec-1-ene-8-sulfonyl]-vinyl}-phenyl)-amino]-piperidine-1-carboxylic acid tert-butyl ester] | 21%

Same assay, conditions: HKRK-B7 cells; compound at 1×10^−3 M; cAMP produced as percentage of that produced by hPTH(1-34) at 100 nM

Row | SMILES | cAMP production activity (%)
2 | Cc1cc(S(=O)(=O)NC[C@@H](O)CO)ccc1/C=C/S(=O)(=O)N1CCC2(CC1)N=C(c1cccc(OC(F)(F)F)c1)NC2=O [Compound 599, N—((R)-2,3-dihydroxy-propyl)-3-methyl-4-{(E)-2-[4-oxo-2-(3-trifluoromethoxy-phenyl)-1,3,8-triaza-spiro[4.5]dec-1-ene-8-sulfonyl]-vinyl}-benzenesulfonamide] | 59%
3 | O=C1NC(c2cccc(OC(F)(F)F)c2)=NC12CCN(S(=O)(=O)/C=C/c1cc(F)c(OCCC(O)CO)c(F)c1)CC2 (stereo not shown) [Compound 600, 8-{(E)-2-[4-(3,4-dihydroxy-butoxy)-3,5-difluoro-phenyl]-ethenesulfonyl}-2-(3-trifluoromethoxy-phenyl)-1,3,8-triaza-spiro[4.5]dec-1-en-4-one] | 67%
4 | Cc1cc(/C=C/S(=O)(=O)N2CCC3(CC2)N=C(c2cccc(OC(F)(F)F)c2)NC3=O)cc(C)c1OCCC(O)CO (stereo not shown) [Compound 601, 8-{(E)-2-[4-(3,4-dihydroxy-butoxy)-3,5-dimethyl-phenyl]-ethenesulfonyl}-2-(3-trifluoromethoxy-phenyl)-1,3,8-triaza-spiro[4.5]dec-1-en-4-one] | 64%
5 | Cc1cc(OC2CCN(C(=O)OC(C)(C)C)CC2)ccc1/C=C/S(=O)(=O)N1CCC2(CC1)N=C(c1cccc(OC(F)(F)F)c1)NC2=O [Compound 602, 4-(3-methyl-4-{(E)-2-[4-oxo-2-(3-trifluoromethoxy-phenyl)-1,3,8-triaza-spiro[4.5]dec-1-ene-8-sulfonyl]-vinyl}-phenoxy)-piperidine-1-carboxylic acid tert-butyl ester] | 3.0%
6 | CC(=O)N(c1ccc(/C=C/S(=O)(=O)N2CCC3(CC2)N=C(c2cccc(OC(F)(F)F)c2)NC3=O)c(C)c1)C(C)C [Compound 603, N-isopropyl-N-(3-methyl-4-{(E)-2-[4-oxo-2-(3-trifluoromethoxy-phenyl)-1,3,8-triaza-spiro[4.5]dec-1-ene-8-sulfonyl]-vinyl}-phenyl)-acetamide] | 69%
7 | Cc1cc(N(CCO)C(N)=O)cc(C)c1/C=C/S(=O)(=O)N1CCC2(CC1)N=C(c1cccc(OC(F)(F)F)c1)NC2=O [Compound 605, 1-(3,5-dimethyl-4-{(E)-2-[4-oxo-2-(3-trifluoromethoxy-phenyl)-1,3,8-triaza-spiro[4.5]dec-1-ene-8-sulfonyl]-vinyl}-phenyl)-1-(2-hydroxy-ethyl)-urea] | 54%
8 | Cc1cc(N2C(=O)CC[C@@H]2CNC(C)C)cc(C)c1/C=C/S(=O)(=O)N1CCC2(CC1)N=C(c1cccc(OC(F)(F)F)c1)NC2=O [Compound 606, 8-((E)-2-{4-[(R)-2-(isopropylamino-methyl)-5-oxo-pyrrolidin-1-yl]-2,6-dimethyl-phenyl}-ethenesulfonyl)-2-(3-trifluoromethoxy-phenyl)-1,3,8-triaza-spiro[4.5]dec-1-en-4-one] | 28%
9 | CC(=O)N(CCN(C)C)c1cc(C)c(/C=C/S(=O)(=O)N2CCC3(CC2)N=C(c2cccc(OC(F)(F)F)c2)NC3=O)c(C)c1 [Compound 607, N-(2-dimethylamino-ethyl)-N-(3,5-dimethyl-4-{(E)-2-[4-oxo-2-(3-trifluoromethoxy-phenyl)-1,3,8-triaza-spiro[4.5]dec-1-ene-8-sulfonyl]-vinyl}-phenyl)-acetamide] | 6.5%
10 | Cc1cc(N(C)C(=O)CN(C)C)cc(C)c1/C=C/S(=O)(=O)N1CCC2(CC1)N=C(c1cccc(OC(F)(F)F)c1)NC2=O [Compound 608, 2-dimethylamino-N-(3,5-dimethyl-4-{(E)-2-[4-oxo-2-(3-trifluoromethoxy-phenyl)-1,3,8-triaza-spiro[4.5]dec-1-ene-8-sulfonyl]-vinyl}-phenyl)-N-methyl-acetamide] | 20%
11 | Cc1cc(N(CCN(C)C)S(C)(=O)=O)cc(C)c1/C=C/S(=O)(=O)N1CCC2(CC1)N=C(c1cccc(OC(F)(F)F)c1)NC2=O [Compound 609, N-(2-dimethylamino-ethyl)-N-(3,5-dimethyl-4-{(E)-2-[4-oxo-2-(3-trifluoromethoxy-phenyl)-1,3,8-triaza-spiro[4.5]dec-1-ene-8-sulfonyl]-vinyl}-phenyl)-methane sulfonamide] | 46%
12 | CC(=O)NC[C@H]1CCC(=O)N1c1cc(C)c(/C=C/S(=O)(=O)N2CCC3(CC2)N=C(c2cccc(OC(F)(F)F)c2)NC3=O)c(C)c1 [Compound 610, N—[(R)-1-(3,5-dimethyl-4-{(E)-2-[4-oxo-2-(3-trifluoromethoxy-phenyl)-1,3,8-triaza-spiro[4.5]dec-1-ene-8-sulfonyl]-vinyl}-phenyl)-5-oxo-pyrrolidin-2-ylmethyl]-acetamide] | 85%
13 | Cc1cc(N2C(=O)CC[C@@H]2CN(C)C)cc(C)c1/C=C/S(=O)(=O)N1CCC2(CC1)N=C(c1cccc(OC(F)(F)F)c1)NC2=O [Compound 611, 8-{(E)-2-[4-((R)-2-dimethylaminomethyl-5-oxo-pyrrolidin-1-yl)-2,6-dimethyl-phenyl]-ethenesulfonyl}-2-(3-trifluoromethoxy-phenyl)-1,3,8-triaza-spiro[4.5]dec-1-en-4-one] | 82%
14 | CC(=O)N(CC#N)c1ccc(/C=C/S(=O)(=O)N2CCC3(CC2)N=C(c2cccc(OC(F)(F)F)c2)NC3=O)c(C)c1 [Compound 612, N-cyanomethyl-N-(3-methyl-4-{(E)-2-[4-oxo-2-(3-trifluoromethoxy-phenyl)-1,3,8-triaza-spiro[4.5]dec-1-ene-8-sulfonyl]-vinyl}-phenyl)-acetamide] | 62%
15 | CC(=O)N(CC(F)(F)F)c1ccc(/C=C/S(=O)(=O)N2CCC3(CC2)N=C(c2cccc(OC(F)(F)F)c2)NC3=O)c(C)c1 [Compound 613, N-(3-methyl-4-{(E)-2-[4-oxo-2-(3-trifluoromethoxy-phenyl)-1,3,8-triaza-spiro[4.5]dec-1-ene-8-sulfonyl]-vinyl}-phenyl)-N-(2,2,2-trifluoro-ethyl)-acetamide] | 44%
16 | Cc1cc(N2C(=O)N(C)C(C)(C)C2=O)cc(C)c1/C=C/S(=O)(=O)N1CCC2(CC1)N=C(c1cccc(OC(F)(F)F)c1)NC2=O [Compound 614, 3-(3,5-dimethyl-4-{(E)-2-[4-oxo-2-(3-trifluoromethoxy-phenyl)-1,3,8-triaza-spiro[4.5]dec-1-ene-8-sulfonyl]-vinyl}-phenyl)-1,5,5-trimethyl-imidazolidine-2,4-dione] | 25%
17 | Cc1cc(N2C(=O)NC(C)(C)C2=O)cc(C)c1/C=C/S(=O)(=O)N1CCC2(CC1)N=C(c1cccc(OC(F)(F)F)c1)NC2=O [Compound 615, 3-(3,5-dimethyl-4-{(E)-2-[4-oxo-2-(3-trifluoromethoxy-phenyl)-1,3,8-triaza-spiro[4.5]dec-1-ene-8-sulfonyl]-vinyl}-phenyl)-5,5-dimethyl-imidazolidine-2,4-dione] | 46%
18 | CC(=O)N(c1cc(C)c(/C=C/S(=O)(=O)N2CCC3(CC2)N=C(c2cccc(OC(F)(F)F)c2)NC3=O)c(C)c1)C1CCOCC1 [Compound 616, N-(3,5-dimethyl-4-{(E)-2-[4-oxo-2-(3-trifluoromethoxy-phenyl)-1,3,8-triaza-spiro[4.5]dec-1-ene-8-sulfonyl]-vinyl}-phenyl)-N-(tetrahydro-pyran-4-yl)-acetamide] | 94%
19 | Cc1cc(N2CCOCC2=O)ccc1/C=C/S(=O)(=O)N1CCC2(CC1)N=C(c1cccc(OC(F)(F)F)c1)NC2=O [Compound 617, 8-{(E)-2-[2-methyl-4-(3-oxo-morpholin-4-yl)-phenyl]-ethenesulfonyl}-2-(3-trifluoromethoxy-phenyl)-1,3,8-triaza-spiro[4.5]dec-1-en-4-one] | 96%
20 | Cc1cc(N2C(=O)CNC2=O)ccc1/C=C/S(=O)(=O)N1CCC2(CC1)N=C(c1cccc(OC(F)(F)F)c1)NC2=O [Compound 618, 3-(3-methyl-4-{(E)-2-[4-oxo-2-(3-trifluoromethoxy-phenyl)-1,3,8-triaza-spiro[4.5]dec-1-ene-8-sulfonyl]-vinyl}-phenyl)-imidazolidine-2,4-dione] | 121%
21 | Cc1cc(C(=O)N2CCCC2)ccc1/C=C/S(=O)(=O)N1CCC2(CC1)N=C(c1ccc(F)c(C(F)(F)F)c1)NC2=O [Compound 619, 2-(4-Fluoro-3-trifluoromethyl-phenyl)-8-{(E)-2-[2-methyl-4-(pyrrolidine-1-carbonyl)-phenyl]-ethenesulfonyl}-1,3,8-triaza-spiro[4.5]dec-1-en-4-one] | 61%
22 | Cc1cc(N2C(=O)CC[C@@H]2CO)ccc1/C=C/S(=O)(=O)N1CCC2(CC1)N=C(c1ccc(F)c(C(F)(F)F)c1)NC2=O [Compound 620, 2-(4-fluoro-3-trifluoromethyl-phenyl)-8-{(E)-2-[4-((R)-2-hydroxymethyl-5-oxo-pyrrolidin-1-yl)-2-methyl-phenyl]-ethenesulfonyl}-1,3,8-triaza-spiro[4.5]dec-1-en-4-one] | 112%
